{"source": "patent US11338007B2", "about": "“Combination formulation of three antiviral compounds” (priority 2016, dated 2022)", "key": {"[1]": {"test": "Tablet dissolution, 1.0% w/v CTAB in 190 mM acetate buffer pH 4.0, USP Type II, 75 rpm", "type": "physicochemical"}, "[2]": {"test": "Solid-state compatibility of sofosbuvir/velpatasvir SSD/voxilaprevir SSD granules (Table 7)", "type": "physicochemical", "settings": "for LS / Total Imp./Deg. Products: granules Lot F", "protocol": "Sofosbuvir, velpatasvir SSD, and voxilaprevir SSD are chemically and physically compatible in the solid-state. The solid-state compatibility of sofosbuvir, velpatasvir SSD, and voxilaprevir SSD was evaluated by preparing a powder blend composed of 49.75% w/w sofosbuvir, 24.88% w/w of velpatasvir SSD, and 24.88% w/w of voxilaprevir SSD, and 0.25% w/w magnesium stearate (added as a lubricant). The powder blend was dry granulated using a roller compactor and then milled. The resulting granules (Lot F) contained 400 mg of sofosbuvir, 100 mg velpatasvir (as 200 mg velpatasvir SSD), and 100 mg voxilaprevir (as 200 mg voxilaprevir SSD) equivalent to the relative compositions in the sofosbuvir/velpatasvir/voxilaprevir tablet: 400/100/100 mg.\nThe chemical and physical stability of sofosbuvir/velpatasvir SSD/voxilaprevir SSD granules, packaged in glass vials (protected from light), was evaluated for 6 months at 25° C./60% RH and 40° C./75% RH under open and closed conditions. As summarized in Table 7, sofosbuvir, velpatasvir, and voxilaprevir were chemically stable with no increase in total impurities/degradation products of sofosbuvir (remaining at 0.0%), velpatasvir (remaining between 0.4 and 0.5%), and voxilaprevir (remaining between 1.1 and 1.4%) after a 6 month storage period. No upward trend in the content of degradation products was observed over the time period studied."}, "[3]": {"test": "Food effect (high calorie/high-fat meals) on pharmacokinetics in human subjects (Table 28)", "type": "in vivo", "settings": "tablets 400/100/100 mg; high calorie/high-fat meal", "protocol": "The effect of food (high calorie/high-fat meals) on the pharmacokinetics of sofosbuvir/velpatasvir SSD/voxilaprevir SSD tablets (400/100/100 mg). […] As a result, sofosbuvir/velpatasvir SSD/voxilaprevir SSD tablets are administered with food."}, "[4]": {"test": "Photostability of tablet cores and film-coated tablets per ICH Q1B (Table 12)", "type": "physicochemical", "protocol": "Tablet cores and film-coated tablets were evaluated per ICH Q1B guidelines with a total of illumination of more than 1.2 million-lux hours and a total irradiance of more than 200 W·hr/m^2."}, "genotype 2 or 3 HCV": {"system": "genotype 2 or 3 HCV", "test": "SVR in HCV infected patients given sofosbuvir plus other HCV therapeutics", "type": "in vivo, human", "settings": "400 mg once daily plus other HCV therapeutics; genotype 2 or 3 HCV infected patients", "protocol": "Safety and tolerability appeared similar across both dose levels. In addition, when sofosbuvir 400 mg once daily plus other HCV therapeutics were given to genotype 2 or 3 HCV infected patients, 100% SVR24 was observed."}, "[5]": {"test": "BCS classification and pH dependence of solubility", "type": "physicochemical"}, "[6]": {"settings": "25° C./60% RH (Closed), 3 months"}, "[7]": {"settings": "25° C./60% RH (Closed), 6 months"}, "[8]": {"settings": "40° C./75% RH (Closed), 1 month"}, "[9]": {"settings": "40° C./75% RH (Closed), 3 months"}, "[10]": {"settings": "40° C./75% RH (Closed), 6 months"}, "[11]": {"settings": "film-coating 0% weight gain, Exposed to Light"}, "[12]": {"settings": "film-coating 2.1% weight gain, Exposed to Light"}, "[13]": {"settings": "film-coating 2.1% weight gain, Protected from Light"}, "[14]": {"settings": "film-coating 3.4% weight gain, Exposed to Light"}, "[15]": {"settings": "film-coating 3.4% weight gain, Protected from Light"}, "[16]": {"settings": "film-coating 4.1% weight gain, Exposed to Light"}, "[17]": {"settings": "film-coating 4.1% weight gain, Protected from Light"}, "[18]": {"settings": "film-coating 5.4% weight gain, Protected from Light"}}}
{"smiles": "CC(C)OC(=O)C(C)N[P@](=O)(OC[C@H]1O[C@@H](n2ccc(=O)[nH]c2=O)[C@](C)(F)[C@@H]1O)Oc1ccccc1", "note": "(stereo in doubt) [sofosbuvir, (S)-isopropyl 2-(((S)-(((2R,3R,4R,5R)-5-(2,4-dioxo-3,4-dihydropyrimidin-1(2H)-yl)-4-fluoro-3-hydroxy-4-methyltetrahydrofuran-2-yl)methoxy)(phenoxy)phosphoryl)amino)propanoate]", "values": [{"measurement": "Dissolved at 30 min", "setting": "[1]; Lot A (14 ct), 25° C./60% RH Closed, 1 month", "value": 98, "unit": "%"}, {"measurement": "Dissolved at 30 min", "setting": "[1]; Lot A (14 ct), 25° C./60% RH Closed, 3 months", "value": 103, "unit": "%"}, {"measurement": "Dissolved at 30 min", "setting": "[1]; Lot A (14 ct), 25° C./60% RH Closed, 6 months", "value": 103, "unit": "%"}, {"measurement": "Dissolved at 30 min", "setting": "[1]; Lot A (14 ct), 40° C./75% RH Closed, 1 month", "value": 100, "unit": "%"}, {"measurement": "Dissolved at 30 min", "setting": "[1]; Lot A (14 ct), 40° C./75% RH Closed, 3 months", "value": 100, "unit": "%"}, {"measurement": "Dissolved at 30 min", "setting": "[1]; Lot A (14 ct), 40° C./75% RH Closed, 6 months", "value": 100, "unit": "%"}, {"measurement": "Dissolved at 30 min", "setting": "[1]; Lot A (14 ct), 40° C./75% RH Open, 1 month", "value": 98, "unit": "%"}, {"measurement": "Dissolved at 30 min", "setting": "[1]; Lot A (14 ct), 40° C./75% RH Open, 3 months", "value": 101, "unit": "%"}, {"measurement": "Dissolved at 30 min", "setting": "[1]; Lot A (14 ct), 40° C./75% RH Open, 6 months", "value": 100, "unit": "%"}, {"measurement": "Dissolved at 30 min", "setting": "[1]; Lot A (14 ct), Initial", "value": 103, "unit": "%"}, {"measurement": "Dissolved at 30 min", "setting": "[1]; Lot B (28 ct), 25° C./60% RH Closed, 1 month", "value": 102, "unit": "%"}, {"measurement": "Dissolved at 30 min", "setting": "[1]; Lot B (28 ct), 25° C./60% RH Closed, 3 months", "value": 100, "unit": "%"}, {"measurement": "Dissolved at 30 min", "setting": "[1]; Lot B (28 ct), 25° C./60% RH Closed, 6 months", "value": 102, "unit": "%"}, {"measurement": "Dissolved at 30 min", "setting": "[1]; Lot B (28 ct), 40° C./75% RH Closed, 1 month", "value": 97, "unit": "%"}, {"measurement": "Dissolved at 30 min", "setting": "[1]; Lot B (28 ct), 40° C./75% RH Closed, 3 months", "value": 99, "unit": "%"}, {"measurement": "Dissolved at 30 min", "setting": "[1]; Lot B (28 ct), 40° C./75% RH Closed, 6 months", "value": 99, "unit": "%"}, {"measurement": "Dissolved at 30 min", "setting": "[1]; Lot B (28 ct), Initial", "value": 103, "unit": "%"}, {"measurement": "LS", "setting": "[2]; [6]", "value": 101.1, "unit": "%"}, {"measurement": "Total Imp./Deg. Products", "setting": "[2]; [6]", "value": 0.0, "unit": "%"}, {"measurement": "LS", "setting": "[2]; [7]", "value": 99.1, "unit": "%"}, {"measurement": "Total Imp./Deg. Products", "setting": "[2]; [7]", "value": 0.0, "unit": "%"}, {"measurement": "LS", "setting": "[2]; [8]", "value": 99.5, "unit": "%"}, {"measurement": "Total Imp./Deg. Products", "setting": "[2]; [8]", "value": 0.0, "unit": "%"}, {"measurement": "LS", "setting": "[2]; [9]", "value": 99.4, "unit": "%"}, {"measurement": "Total Imp./Deg. Products", "setting": "[2]; [9]", "value": 0.0, "unit": "%"}, {"measurement": "LS", "setting": "[2]; [10]", "value": 97.2, "unit": "%"}, {"measurement": "Total Imp./Deg. Products", "setting": "[2]; [10]", "value": 0.0, "unit": "%"}, {"measurement": "LS", "setting": "[2]; 40° C./75% RH (Open), 1 month", "value": 101.3, "unit": "%"}, {"measurement": "Total Imp./Deg. Products", "setting": "[2]; 40° C./75% RH (Open), 1 month", "value": 0.0, "unit": "%"}, {"measurement": "LS", "setting": "[2]; 40° C./75% RH (Open), 3 months", "value": 98.5, "unit": "%"}, {"measurement": "Total Imp./Deg. Products", "setting": "[2]; 40° C./75% RH (Open), 3 months", "value": 0.0, "unit": "%"}, {"measurement": "LS", "setting": "[2]; 40° C./75% RH (Open), 6 months", "value": 95.6, "unit": "%"}, {"measurement": "Total Imp./Deg. Products", "setting": "[2]; 40° C./75% RH (Open), 6 months", "value": 0.0, "unit": "%"}, {"measurement": "LS", "setting": "[2]; Initial, 0 months", "value": 103.5, "unit": "%"}, {"measurement": "Total Imp./Deg. Products", "setting": "[2]; Initial, 0 months", "value": 0.0, "unit": "%"}, {"measurement": "total impurities/degradation products", "setting": "[2]; granules, over 6 month storage at 25° C./60% RH and 40° C./75% RH, open and closed", "value": 0.0, "unit": "%"}, {"measurement": "effect of food on plasma exposure", "setting": "[3]", "value": "does not substantially alter"}, {"measurement": "LS", "setting": "[4]; [11]", "value": 101.5, "unit": "%"}, {"measurement": "Total Imp./Deg. Products", "setting": "[4]; [11]", "value": 0.0, "unit": "%"}, {"measurement": "Total Imp./Deg. Products", "setting": "[4]; film-coating 0% weight gain, Protected from Light", "value": 0.0, "unit": "%"}, {"measurement": "LS", "setting": "[4]; [12]", "value": 101.7, "unit": "%"}, {"measurement": "Total Imp./Deg. Products", "setting": "[4]; [12]", "value": 0.0, "unit": "%"}, {"measurement": "LS", "setting": "[4]; [13]", "value": 101.2, "unit": "%"}, {"measurement": "Total Imp./Deg. Products", "setting": "[4]; [13]", "value": 0.0, "unit": "%"}, {"measurement": "LS", "setting": "[4]; [14]", "value": 100.6, "unit": "%"}, {"measurement": "Total Imp./Deg. Products", "setting": "[4]; [14]", "value": 0.0, "unit": "%"}, {"measurement": "LS", "setting": "[4]; [15]", "value": 101.8, "unit": "%"}, {"measurement": "Total Imp./Deg. Products", "setting": "[4]; [15]", "value": 0.0, "unit": "%"}, {"measurement": "LS", "setting": "[4]; [16]", "value": 102.0, "unit": "%"}, {"measurement": "Total Imp./Deg. Products", "setting": "[4]; [16]", "value": 0.0, "unit": "%"}, {"measurement": "LS", "setting": "[4]; [17]", "value": 101.2, "unit": "%"}, {"measurement": "Total Imp./Deg. Products", "setting": "[4]; [17]", "value": 0.0, "unit": "%"}, {"measurement": "Total Imp./Deg. Products", "setting": "[4]; film-coating 5.4% weight gain, Exposed to Light", "value": 0.0, "unit": "%"}, {"measurement": "LS", "setting": "[4]; [18]", "value": 101.0, "unit": "%"}, {"measurement": "Total Imp./Deg. Products", "setting": "[4]; [18]", "value": 0.0, "unit": "%"}, {"measurement": "level of degradation products", "setting": "[4]; tablets film-coated to weight gains 2.1 to 5.4%", "value": 0.0, "unit": "%"}, {"measurement": "loss after exposure to light", "setting": "[4]; uncoated tablet cores", "value": "no change"}, {"measurement": "SVR24", "setting": "genotype 2 or 3 HCV", "value": 100, "unit": "%"}, {"measurement": "BCS Class", "setting": "[5]", "value": "BCS Class 3"}, {"measurement": "aqueous solubility, pH dependence", "setting": "[5]", "value": "high and pH-independent"}]}
